Test results taken from patent US20250144220A1, “CONJUGATE FOR PREVENTING AND TREATING VIRAL INFECTIONS AND USE THEREOF” (priority 2021, published 2025).
Read-outs that look alike come from different tables or passages of the source.

Key:
Assay in all cases: microbe, parasite or virus in culture
Assay type in all cases: cell-based, influenza virus H1N1
[1] = test system: VX-787-resistant A/PR/8/34 (H1N1)
[2] = test system: Baloxavir-resistant A/PR/8/34 (H1N1)
[3] = test system: Oseltamivir-resistant A/Weiss/43 (H1N1)

| Compound | EC50 ([1]; Influenza A virus, MDCK, 120 h) [nM] | EC50 ([2]; Influenza A virus, MDCK, 120 h) [nM] | EC50 ([3]; Influenza A virus, H1N1, MDCK, 120 h) [nM] | EC50 ([1]; read-out: EC50) [nM] | EC50 ([2]; read-out: EC50) [nM] | EC50 ([3]; read-out: EC50) [nM] |
| --- | --- | --- | --- | --- | --- | --- |
| O=C1c2c(O)c(=O)ccn2N([C@@H]2c3ccccc3SCc3c2ccc(F)c3F)[C@@H]2COCCN12 [Baloxavir, baloxivir] | 0.58 | 95 |  |  |  |  |
| CCC(CC)O[C@@H]1C=C(C(=O)O)C[C@H](N)[C@H]1NC(C)=O [Oseltamivir acid] | 1060 | 2380 | > 100000 |  |  |  |
| CC(=O)N[C@H]1[C@H]([C@H](O)[C@H](O)CO)OC(C(=O)O)=C[C@@H]1N=C(N)N [Zanamivir, zanamivir, reference compound] |  |  |  | 167 | 1390 | 24.4 |
